Laboratory results as given in the NIST ThermoML archive (doi:10.1016/j.tca.2013.11.010).
± gives the expanded uncertainty stated by the source.

What was measured:
[1] = for surface tension liquid-gas: Drop volume; for viscosity / speed of sound / mass density: 101.33 kPa; for viscosity / speed of sound / mass density / vapor or sublimation pressure: Liquid; for viscosity: Capillary tube (Ostwald / Ubbelohde) method; for speed of sound: Sing-around technique in a fixed-path interferometer; for mass density: Vibrating tube method; for vapor or sublimation pressure: Ebulliometric method (Recirculating still)
[2] = refractive index (Na D-line) (dimensionless); details: 101.33 kPa, Liquid, Standard Abbe refractometry
[3] = relative permittivity at various frequencies (dimensionless); details: 101.3 kPa, Liquid, Frequency=2 MHz, Parallel plate capacitor

## CCCCOC(=O)C(C)O (centres undefined) [butyl 2-hydroxypropanoate]
[1]; 278.15 K
  surface tension liquid-gas: 30.07 ± 0.34 mN/m
  viscosity: 6.496 ± 0.15 mPa·s
  speed of sound: 1357.2 ± 2.3 m/s
  mass density: 996.896 ± 0.83 kg/m3
[1]; 280.65 K
  surface tension liquid-gas: 29.86 ± 0.34 mN/m
  viscosity: 5.873 ± 0.13 mPa·s
  speed of sound: 1348.2 ± 2.3 m/s
  mass density: 994.466 ± 0.83 kg/m3
[1]; 283.15 K
  surface tension liquid-gas: 29.65 ± 0.34 mN/m
  viscosity: 5.333 ± 0.12 mPa·s
  speed of sound: 1339.1 ± 2.3 m/s
  mass density: 992.023 ± 0.83 kg/m3
[1]; 285.65 K
  surface tension liquid-gas: 29.42 ± 0.33 mN/m
  viscosity: 4.86 ± 0.11 mPa·s
  speed of sound: 1330.1 ± 2.3 m/s
  mass density: 989.578 ± 0.82 kg/m3
[1]; 288.15 K
  surface tension liquid-gas: 29.14 ± 0.33 mN/m
  viscosity: 4.446 ± 0.1 mPa·s
  speed of sound: 1321.2 ± 2.3 m/s
  mass density: 987.126 ± 0.82 kg/m3
[1]; 290.65 K
  surface tension liquid-gas: 28.93 ± 0.33 mN/m
  viscosity: 4.077 ± 0.093 mPa·s
  speed of sound: 1312.2 ± 2.3 m/s
  mass density: 984.671 ± 0.82 kg/m3
[1]; 293.15 K
  surface tension liquid-gas: 28.72 ± 0.33 mN/m
  viscosity: 3.753 ± 0.086 mPa·s
  speed of sound: 1303.2 ± 2.3 m/s
  mass density: 982.212 ± 0.82 kg/m3
[1]; 295.65 K
  surface tension liquid-gas: 28.38 ± 0.32 mN/m
  viscosity: 3.466 ± 0.08 mPa·s
  speed of sound: 1294.1 ± 2.3 m/s
  mass density: 979.75 ± 0.81 kg/m3
[1]; 298.15 K
  surface tension liquid-gas: 28.15 ± 0.32 mN/m
  viscosity: 3.207 ± 0.074 mPa·s
  speed of sound: 1285 ± 2.3 m/s
  mass density: 977.283 ± 0.81 kg/m3
[1]; 300.65 K
  surface tension liquid-gas: 27.87 ± 0.32 mN/m
  viscosity: 2.978 ± 0.068 mPa·s
  speed of sound: 1276 ± 2.3 m/s
  mass density: 974.813 ± 0.81 kg/m3
[1]; 303.15 K
  surface tension liquid-gas: 27.64 ± 0.32 mN/m
  viscosity: 2.773 ± 0.064 mPa·s
  speed of sound: 1266.9 ± 2.3 m/s
  mass density: 972.337 ± 0.81 kg/m3
  vapor or sublimation pressure: 0.102 ± 0.1 kPa
[1]; 305.65 K
  surface tension liquid-gas: 27.38 ± 0.31 mN/m
  viscosity: 2.588 ± 0.059 mPa·s
  speed of sound: 1257.8 ± 2.3 m/s
  mass density: 969.859 ± 0.8 kg/m3
[1]; 308.15 K
  surface tension liquid-gas: 27.16 ± 0.31 mN/m
  viscosity: 2.423 ± 0.056 mPa·s
  speed of sound: 1248.8 ± 2.3 m/s
  mass density: 967.374 ± 0.8 kg/m3
  vapor or sublimation pressure: 0.149 ± 0.1 kPa
[1]; 310.65 K
  surface tension liquid-gas: 26.92 ± 0.31 mN/m
  viscosity: 2.272 ± 0.052 mPa·s
  speed of sound: 1239.8 ± 2.3 m/s
  mass density: 964.888 ± 0.8 kg/m3
[1]; 313.15 K
  surface tension liquid-gas: 26.68 ± 0.31 mN/m
  viscosity: 2.134 ± 0.049 mPa·s
  speed of sound: 1230.8 ± 2.3 m/s
  mass density: 962.397 ± 0.79 kg/m3
  vapor or sublimation pressure: 0.201 ± 0.1 kPa
[1]; 315.65 K
  surface tension liquid-gas: 26.42 ± 0.3 mN/m
  viscosity: 2.011 ± 0.046 mPa·s
  speed of sound: 1221.7 ± 2.3 m/s
  mass density: 959.903 ± 0.79 kg/m3
[1]; 318.15 K
  surface tension liquid-gas: 26.1 ± 0.3 mN/m
  viscosity: 1.897 ± 0.044 mPa·s
  speed of sound: 1212.8 ± 2.3 m/s
  mass density: 957.407 ± 0.79 kg/m3
  vapor or sublimation pressure: 0.273 ± 0.1 kPa
[1]; 320.65 K
  surface tension liquid-gas: 25.89 ± 0.3 mN/m
  viscosity: 1.793 ± 0.041 mPa·s
  speed of sound: 1203.8 ± 2.3 m/s
  mass density: 954.908 ± 0.79 kg/m3
[1]; 323.15 K
  surface tension liquid-gas: 25.7 ± 0.3 mN/m
  viscosity: 1.695 ± 0.039 mPa·s
  speed of sound: 1194.9 ± 2.3 m/s
  mass density: 952.408 ± 0.78 kg/m3
  vapor or sublimation pressure: 0.371 ± 0.1 kPa
[1]; 325.65 K
  surface tension liquid-gas: 25.43 ± 0.29 mN/m
  viscosity: 1.607 ± 0.037 mPa·s
  speed of sound: 1185.9 ± 2.3 m/s
  mass density: 949.904 ± 0.78 kg/m3
[1]; 328.15 K
  surface tension liquid-gas: 25.14 ± 0.29 mN/m
  viscosity: 1.526 ± 0.035 mPa·s
  speed of sound: 1177 ± 2.3 m/s
  mass density: 947.397 ± 0.78 kg/m3
  vapor or sublimation pressure: 0.511 ± 0.1 kPa
[1]; 330.65 K
  surface tension liquid-gas: 24.92 ± 0.29 mN/m
  viscosity: 1.45 ± 0.033 mPa·s
  speed of sound: 1168 ± 2.3 m/s
  mass density: 944.885 ± 0.77 kg/m3
[1]; 333.15 K
  surface tension liquid-gas: 24.67 ± 0.29 mN/m
  viscosity: 1.379 ± 0.032 mPa·s
  speed of sound: 1159.1 ± 2.3 m/s
  mass density: 942.369 ± 0.77 kg/m3
  vapor or sublimation pressure: 0.679 ± 0.1 kPa
[1]; 335.65 K
  surface tension liquid-gas: 24.41 ± 0.28 mN/m
  viscosity: 1.315 ± 0.03 mPa·s
  speed of sound: 1150.3 ± 2.3 m/s
  mass density: 939.848 ± 0.77 kg/m3
[1]; 338.15 K
  surface tension liquid-gas: 24.16 ± 0.28 mN/m
  viscosity: 1.257 ± 0.029 mPa·s
  speed of sound: 1141.5 ± 2.3 m/s
  mass density: 937.324 ± 0.77 kg/m3
  vapor or sublimation pressure: 0.899 ± 0.1 kPa
[1]; 343.15 K
  vapor or sublimation pressure: 1.192 ± 0.1 kPa
[1]; 348.15 K
  vapor or sublimation pressure: 1.541 ± 0.1 kPa
[1]; 353.15 K
  vapor or sublimation pressure: 1.979 ± 0.1 kPa
[1]; 358.15 K
  vapor or sublimation pressure: 2.502 ± 0.1 kPa
[1]; 363.15 K
  vapor or sublimation pressure: 3.224 ± 0.1 kPa
[1]; 368.15 K
  vapor or sublimation pressure: 4.057 ± 0.1 kPa
[1]; 373.15 K
  vapor or sublimation pressure: 5.075 ± 0.1 kPa
[1]; 378.15 K
  vapor or sublimation pressure: 6.271 ± 0.1 kPa
[1]; 383.15 K
  vapor or sublimation pressure: 7.753 ± 0.1 kPa
[1]; 388.15 K
  vapor or sublimation pressure: 9.531 ± 0.1 kPa
[1]; 393.15 K
  vapor or sublimation pressure: 11.64 ± 0.1 kPa
[1]; 398.15 K
  vapor or sublimation pressure: 14.12 ± 0.1 kPa
[1]; 403.15 K
  vapor or sublimation pressure: 17 ± 0.11 kPa
[1]; 408.15 K
  vapor or sublimation pressure: 20.43 ± 0.11 kPa
[1]; 413.15 K
  vapor or sublimation pressure: 24.39 ± 0.11 kPa
[1]; 418.15 K
  vapor or sublimation pressure: 29.2 ± 0.12 kPa
[1]; 423.15 K
  vapor or sublimation pressure: 34.6 ± 0.12 kPa
[1]; 428.15 K
  vapor or sublimation pressure: 40.78 ± 0.13 kPa
[1]; 433.15 K
  vapor or sublimation pressure: 47.9 ± 0.14 kPa
[1]; 438.15 K
  vapor or sublimation pressure: 55.97 ± 0.15 kPa
[1]; 443.15 K
  vapor or sublimation pressure: 65.3 ± 0.17 kPa
[1]; 448.15 K
  vapor or sublimation pressure: 75.81 ± 0.19 kPa
[1]; 453.15 K
  vapor or sublimation pressure: 87.7 ± 0.21 kPa
[2]; 283.15 K
  refractive index: 1.42578 ± 0.00054
[2]; 285.65 K
  refractive index: 1.42472 ± 0.00054
[2]; 288.15 K
  refractive index: 1.4237 ± 0.00054
[2]; 290.65 K
  refractive index: 1.42259 ± 0.00054
[2]; 293.15 K
  refractive index: 1.4215 ± 0.00054
[2]; 295.65 K
  refractive index: 1.42038 ± 0.00054
[2]; 298.15 K
  refractive index: 1.41928 ± 0.00054
[2]; 300.65 K
  refractive index: 1.41815 ± 0.00054
[2]; 303.15 K
  refractive index: 1.41703 ± 0.00054
[2]; 305.65 K
  refractive index: 1.4159 ± 0.00054
[2]; 308.15 K
  refractive index: 1.41477 ± 0.00054
[2]; 310.65 K
  refractive index: 1.41366 ± 0.00054
[2]; 313.15 K
  refractive index: 1.41252 ± 0.00054
[2]; 315.65 K
  refractive index: 1.41139 ± 0.00054
[2]; 318.15 K
  refractive index: 1.41026 ± 0.00054
[2]; 320.65 K
  refractive index: 1.4091 ± 0.00054
[2]; 323.15 K
  refractive index: 1.40797 ± 0.00054
[2]; 325.65 K
  refractive index: 1.40682 ± 0.00054
[2]; 328.15 K
  refractive index: 1.40572 ± 0.00054
[2]; 330.65 K
  refractive index: 1.40441 ± 0.00054
[2]; 333.15 K
  refractive index: 1.40341 ± 0.00054
[2]; 335.65 K
  refractive index: 1.40226 ± 0.00054
[2]; 338.15 K
  refractive index: 1.40114 ± 0.00054
[3]; 278.15 K
  relative permittivity: 11.488 ± 0.12
[3]; 280.65 K
  relative permittivity: 11.323 ± 0.11
[3]; 283.15 K
  relative permittivity: 11.164 ± 0.11
[3]; 285.65 K
  relative permittivity: 11.046 ± 0.11
[3]; 288.15 K
  relative permittivity: 10.912 ± 0.11
[3]; 290.65 K
  relative permittivity: 10.769 ± 0.11
[3]; 293.15 K
  relative permittivity: 10.593 ± 0.11
[3]; 295.65 K
  relative permittivity: 10.428 ± 0.1
[3]; 298.15 K
  relative permittivity: 10.298 ± 0.1
[3]; 300.65 K
  relative permittivity: 10.158 ± 0.1
[3]; 303.15 K
  relative permittivity: 10.024 ± 0.1
[3]; 305.65 K
  relative permittivity: 9.87 ± 0.099
[3]; 308.15 K
  relative permittivity: 9.695 ± 0.097
[3]; 310.65 K
  relative permittivity: 9.583 ± 0.096
[3]; 313.15 K
  relative permittivity: 9.411 ± 0.094
[3]; 315.65 K
  relative permittivity: 9.273 ± 0.093
[3]; 318.15 K
  relative permittivity: 9.165 ± 0.092
[3]; 320.65 K
  relative permittivity: 9.002 ± 0.09
[3]; 323.15 K
  relative permittivity: 8.844 ± 0.088
[3]; 325.65 K
  relative permittivity: 8.699 ± 0.087
[3]; 328.15 K
  relative permittivity: 8.545 ± 0.085
[3]; 330.65 K
  relative permittivity: 8.418 ± 0.084
[3]; 333.15 K
  relative permittivity: 8.286 ± 0.083
[3]; 335.65 K
  relative permittivity: 8.164 ± 0.082
[3]; 338.15 K
  relative permittivity: 8.047 ± 0.08
